Results reported in ChEMBL document CHEMBL4004838, “Design and synthesis of novel phenyl -1, 4-beta-carboline-hybrid molecules as potential anticancer agents” (Eur J Med Chem, 2017).

What was measured:
PC-3 = assay: Growth inhibition of human PC3 cells incubated for 48 hrs by sulforhodamine B assay; type: functional; conditions: PC-3, 48 h
SW-620 = assay: Growth inhibition of human SW620 cells assessed as cell growth at 0.1 uM incubated for 48 hrs by sulforhodamine B assay relative to control; type: functional; conditions: SW-620, 48 h, read-out: Activity
CCRF-CEM = assay: Growth inhibition of human CCRF-CEM cells assessed as cell growth at 0.01 uM incubated for 48 hrs by sulforhodamine B assay relative to control; type: functional; conditions: read-out: Activity
M14 = assay: Growth inhibition of human M14 cells assessed as cell growth at 1 uM incubated for 48 hrs by sulforhodamine B assay relative to control; type: functional; conditions: M14, 48 h, read-out: Activity
SK-MEL-28 = assay: Growth inhibition of human SK-MEL-28 cells assessed as cell growth at 1 uM incubated for 48 hrs by sulforhodamine B assay relative to control; type: functional; conditions: SK-MEL-28, 48 h, read-out: Activity
K562 = assay: Growth inhibition of human K562 cells incubated for 48 hrs by sulforhodamine B assay; type: functional; conditions: K562, 48 h
HCT-15 = assay: Growth inhibition of human HCT15 cells incubated for 48 hrs by sulforhodamine B assay; type: functional; conditions: HCT-15, 48 h
UACC-257 [1] = assay: Growth inhibition of human UACC257 cells assessed as cell growth at 1 uM incubated for 48 hrs by sulforhodamine B assay relative to control; type: functional; conditions: UACC-257, 48 h, read-out: Activity
NCI/ADR-RES = assay: Growth inhibition of human NCI-ADR-RES cells incubated for 48 hrs by sulforhodamine B assay; type: functional
Hs-578T = assay: Growth inhibition of human Hs 578T cells assessed as cell growth at 100 uM incubated for 48 hrs by sulforhodamine B assay relative to control; type: functional; conditions: read-out: Activity
IGROV-1 = assay: Growth inhibition of human IGROV1 cells assessed as cell growth at 0.01 uM incubated for 48 hrs by sulforhodamine B assay relative to control; type: functional; conditions: IGROV-1, 48 h, read-out: Activity
RPMI-8226 = assay: Growth inhibition of human RPMI8226 cells assessed as cell growth at 1 uM incubated for 48 hrs by sulforhodamine B assay relative to control; type: functional; conditions: RPMI-8226, 48 h, read-out: Activity
HCC 2998 = assay: Growth inhibition of human HCC2998 cells assessed as cell growth at 100 uM incubated for 48 hrs by sulforhodamine B assay relative to control; type: functional; conditions: HCC 2998, 48 h, read-out: Activity
UACC-257 [2] = assay: Growth inhibition of human UACC257 cells incubated for 48 hrs by sulforhodamine B assay; type: functional; conditions: UACC-257, 48 h
UO-31 = assay: Growth inhibition of human UO31 cells assessed as cell growth at 0.01 uM incubated for 48 hrs by sulforhodamine B assay relative to control; type: functional; conditions: UO-31, 48 h, read-out: Activity
Malme-3M = assay: Growth inhibition of human MALME-3M cells assessed as cell growth at 100 uM incubated for 48 hrs by sulforhodamine B assay relative to control; type: functional; conditions: read-out: Activity
SK-MEL-2 = assay: Growth inhibition of human SK-MEL-2 cells incubated for 48 hrs by sulforhodamine B assay; type: functional; conditions: SK-MEL-2, 48 h
LOX IMVI = assay: Growth inhibition of human LOXIMVI cells incubated for 48 hrs by sulforhodamine B assay; type: functional
HOP-92 = assay: Growth inhibition of human HOP92 cells assessed as cell growth at 0.1 uM incubated for 48 hrs by sulforhodamine B assay relative to control; type: functional; conditions: HOP-92, 48 h, read-out: Activity
BT-549 = assay: Growth inhibition of human BT549 cells incubated for 48 hrs by sulforhodamine B assay; type: functional; conditions: BT-549, 48 h
T47D = assay: Growth inhibition of human T47D cells assessed as cell growth at 0.1 uM incubated for 48 hrs by sulforhodamine B assay relative to control; type: functional; conditions: read-out: Activity
MOLT-4 = assay: Growth inhibition of human MOLT4 cells incubated for 48 hrs by sulforhodamine B assay; type: functional; conditions: MOLT-4, 48 h
HT-29 = assay: Growth inhibition of human HT-29 cells assessed as cell growth at 100 uM incubated for 48 hrs by sulforhodamine B assay relative to control; type: functional; conditions: HT-29, 48 h, read-out: Activity
KM12 = assay: Growth inhibition of human KM12 cells assessed as cell growth at 1 uM incubated for 48 hrs by sulforhodamine B assay relative to control; type: functional; conditions: KM12, 48 h, read-out: Activity
Albumin = Albumin (Bos taurus, UniProt P02769); assay: Binding affinity to Bovine serum albumin assessed as at 0.10 to 1 uM by UV-Visible spectrophotometric method; type: ADME; conditions: cattle, isolated protein
Albumin, sequence (P02769 whole entry): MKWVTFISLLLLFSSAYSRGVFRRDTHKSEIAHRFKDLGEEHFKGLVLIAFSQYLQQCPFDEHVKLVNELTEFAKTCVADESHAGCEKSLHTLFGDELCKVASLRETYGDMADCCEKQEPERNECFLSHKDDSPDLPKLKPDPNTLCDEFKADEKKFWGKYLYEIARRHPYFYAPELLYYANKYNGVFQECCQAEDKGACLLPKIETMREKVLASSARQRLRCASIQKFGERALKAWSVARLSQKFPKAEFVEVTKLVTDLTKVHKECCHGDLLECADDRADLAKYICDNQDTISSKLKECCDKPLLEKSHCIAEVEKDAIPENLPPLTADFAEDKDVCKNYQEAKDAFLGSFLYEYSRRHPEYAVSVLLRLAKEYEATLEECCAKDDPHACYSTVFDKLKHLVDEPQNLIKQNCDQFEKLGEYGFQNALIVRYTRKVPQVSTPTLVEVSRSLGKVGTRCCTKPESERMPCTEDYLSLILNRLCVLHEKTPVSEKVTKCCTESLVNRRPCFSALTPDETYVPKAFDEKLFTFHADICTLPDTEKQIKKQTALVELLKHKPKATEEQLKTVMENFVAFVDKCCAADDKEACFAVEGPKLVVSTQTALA

SF-539 = assay: Growth inhibition of human SF539 cells assessed as cell growth at 0.1 uM incubated for 48 hrs by sulforhodamine B assay relative to control; type: functional; conditions: SF-539, 48 h, read-out: Activity
SR = assay: Growth inhibition of human SR cells assessed as cell growth at 0.1 uM incubated for 48 hrs by sulforhodamine B assay relative to control; type: functional; conditions: read-out: Activity
NCI-H322M = assay: Growth inhibition of human NCI-H322M cells incubated for 48 hrs by sulforhodamine B assay; type: functional
[3] = read-out: LC50 (the source's name)
[4] = read-out: pLC50 (the source's name) (converted)

c1ccc2c3c([nH]c2c1)C(c1ccc(C2NCCc4c2[nH]c2ccccc42)cc1)NCC3 (racemic)
GI50 (PC-3; read-out: GI50): 1270 nM | CC50 (PC-3; [3]): 5690 nM | TGI (PC-3; read-out: TGI): 2690 nM | GI50 (PC-3; read-out: pGI50 (converted)): 1260 nM | CC50 (PC-3; [4]): 5750 nM | TGI (PC-3; read-out: pTGI (converted)): 2690 nM | growth at 0.1 µM (SW-620): 100% | growth at 0.01 µM (CCRF-CEM): 98% | growth at 1 µM (M14): 21% | growth at 1 µM (SK-MEL-28): 91% | GI50 (K562; read-out: GI50): 2440 nM | CC50 (K562; [3]): 9750 nM | TGI (K562; read-out: TGI): 4880 nM | GI50 (K562; read-out: pGI50 (converted)): 245 nM | CC50 (K562; [4]): 977 nM | TGI (K562; read-out: pTGI (converted)): 4900 nM | GI50 (HCT-15; read-out: pGI50 (converted)): 427 nM | TGI (HCT-15; read-out: pTGI (converted)): 1780 nM | growth at 1 µM (UACC-257 [1]): 103% | GI50 (NCI/ADR-RES; read-out: GI50): 2100 nM | CC50 (NCI/ADR-RES; [3]): > 1000 nM | TGI (NCI/ADR-RES; read-out: TGI): 7810 nM | GI50 (NCI/ADR-RES; read-out: pGI50 (converted)): 2090 nM | CC50 (NCI/ADR-RES; read-out: pLC50 (converted)): > 100000 nM | TGI (NCI/ADR-RES; read-out: pTGI (converted)): 7760 nM | growth at 100 µM (Hs-578T): -65% | growth at 0.01 µM (IGROV-1): 99% | growth at 1 µM (RPMI-8226): 2% | growth at 100 µM (HCC 2998): 84% | GI50 (UACC-257 [2]; read-out: GI50): 1190 nM | CC50 (UACC-257 [2]; [3]): 6500 nM | TGI (UACC-257 [2]; read-out: TGI): 3520 nM | GI50 (UACC-257 [2]; read-out: pGI50 (converted)): 1910 nM | CC50 (UACC-257 [2]; [4]): 6460 nM | TGI (UACC-257 [2]; read-out: pTGI (converted)): 3550 nM | growth at 0.01 µM (UO-31): 89% | growth at 100 µM (Malme-3M): 83% | GI50 (SK-MEL-2; read-out: GI50): 1700 nM | CC50 (SK-MEL-2; [3]): 7470 nM | TGI (SK-MEL-2; read-out: TGI): 3570 nM | GI50 (SK-MEL-2; read-out: pGI50 (converted)): 1700 nM | CC50 (SK-MEL-2; [4]): 7410 nM | TGI (SK-MEL-2; read-out: pTGI (converted)): 3550 nM | GI50 (LOX IMVI; read-out: GI50): 1960 nM | CC50 (LOX IMVI; [3]): 1100 nM | TGI (LOX IMVI; read-out: TGI): 4500 nM | GI50 (LOX IMVI; read-out: pGI50 (converted)): 195 nM | CC50 (LOX IMVI; [4]): 1100 nM | TGI (LOX IMVI; read-out: pTGI (converted)): 4470 nM | growth at 0.1 µM (HOP-92): 87% | GI50 (BT-549; read-out: GI50): 1110 nM | CC50 (BT-549; [3]): 5370 nM | TGI (BT-549; read-out: TGI): 2440 nM | GI50 (BT-549; read-out: pGI50 (converted)): 11200 nM | CC50 (BT-549; [4]): 53700 nM | TGI (BT-549; read-out: pTGI (converted)): 24500 nM | growth at 0.1 µM (T47D): 86% | CC50 (MOLT-4; [3]): 8030 nM | GI50 (MOLT-4; read-out: pGI50 (converted)): 380 nM | CC50 (MOLT-4; [4]): 7940 nM | TGI (MOLT-4; read-out: pTGI (converted)): 1550 nM | growth at 100 µM (HT-29): 90% | growth at 1 µM (KM12): 54% | Activity (Albumin): Active | growth at 0.1 µM (SF-539): 95% | growth at 0.1 µM (SR): 106% | GI50 (NCI-H322M; read-out: GI50): 1250 nM | CC50 (NCI-H322M; [3]): 5680 nM | TGI (NCI-H322M; read-out: TGI): 2660 nM | GI50 (NCI-H322M; read-out: pGI50 (converted)): 1260 nM | CC50 (NCI-H322M; [4]): 5620 nM | TGI (NCI-H322M; read-out: pTGI (converted)): 2690 nM
